The assay concerns Shionogi mouse mammary carcinoma cells. Briefly: Antiandrogenic activity on DHT-stimulated Shionogi mouse mammary carcinoma cell number. The class given is cell-based. The following applies: for A = Ki OH-Flu/Ki compound: ratio of Ki of hydroxyflutamide versus tested compound, higher values preferable.
The mark [1] stands for this setting: Mus musculus, inhibition of DHT-stimulated Shionogi cell number, 10-12 days, read-out: Antiandrogenic activity IC50.
[2] abbreviates: inhibition of DHT-stimulated Shionogi cell number.
The mark [3] stands for this setting: Mus musculus, read-out: Antiandrogenic activity IC50 (nM).

These results are taken from patent US6933321B2, “Antiandrogenic biphenyls” (Endorecherche, Inc., priority 2002, dated 2005).

Usually IC50 stands for the concentration at which inhibition is half-maximal.

Like-named read-outs stand apart in the source and are kept apart here.

In the case of `N#Cc1ccc(-c2ccc(C#N)c(F)c2)cc1` [EM-4280], the half-inhibitory concentration (IC50) under setting [1] was above 500 nM. The “A = Ki OH-Flu/Ki compound” value under setting [2] is below 0.2.
Taken in the same sequence, the figures for `N#Cc1ccc(-c2ccc(C#N)c(Cl)c2)cc1` [EM-4281] were 145 nM and 0.6.
Taken in the same sequence, the figures for `N#Cc1ccc(-c2ccc(F)cc2F)cc1F` [EM-4282] were above 500 nM and below 0.2.
Turning to `N#Cc1ccc(-c2ccc(F)cc2F)cc1Cl` [EM-4283, 3-chloro-2′,4′-difluoro-biphenyl-4-carbonitrile], the IC50 under setting [3] amounted to 37 nM. Besides, the “A = Ki OH-Flu/Ki compound” value under setting [2] stood at 2.3.
For `CSc1cc(-c2ccc(C#N)cc2)ccc1C#N` [EM-4285], the half-maximal inhibitory concentration (IC50) under setting [1] is above 500 nM. Besides, the “A = Ki OH-Flu/Ki compound” value under setting [2] is below 0.2.
Taken in the same sequence, the figures for `CSc1cc(-c2ccc(F)cc2F)ccc1C#N` [EM-4288] were 28 nM and 4.4.
For `CS(=O)(=O)c1cc(-c2ccc(F)cc2F)ccc1C#N` [EM-4292], in that order: above 500 nM and below 0.2.
Consider `N#Cc1ccc(-c2ccc(F)cc2C(F)(F)F)cc1C(F)(F)F` [EM-4296], for which the half-inhibitory concentration (IC50) under setting [1] was above 500 nM. Besides, the “A = Ki OH-Flu/Ki compound” value under setting [2] was below 0.2.
On to `N#Cc1ccc(-c2ccc(C#N)c(C(F)(F)F)c2)c(C(N)=O)c1` [EM-4320], for which the 50% inhibitory concentration (IC50) under setting [1] is above 500 nM. In addition, the “A = Ki OH-Flu/Ki compound” value under setting [2] is recorded as below 0.2.
Taken in the same sequence, the figures for `N#Cc1ccc(-c2ccc(Br)c([N+](=O)[O-])c2)cc1` [EM-4338] were above 500 nM and below 0.2.
Taken in the same sequence, the figures for `N#Cc1ccc(-c2ccc(C#N)c([N+](=O)[O-])c2)cc1` [EM-4344] were above 500 nM and below 0.2.
For `N#Cc1ccc(-c2ccc(F)cc2F)cc1[N+](=O)[O-]` [EM-4633], in that order: 96 nM and 0.8.
Turning to `N#Cc1ccc(-c2ccc(Br)cc2C(F)(F)F)cc1[N+](=O)[O-]` [EM-4792], the IC50 under setting [1] was above 500 nM. Besides, the “A = Ki OH-Flu/Ki compound” value under setting [2] is given as below 0.2.
For `COc1ccc(-c2c(F)cc(F)cc2F)cc1C(F)(F)F` [EM-4833], in that order: above 500 nM and below 0.2.
For `CCN(CC)C(=O)c1cc(F)ccc1-c1ccc(C#N)c(C(F)(F)F)c1` [EM-4841], in that order: above 500 nM and below 0.2.
Consider `CCCCN(CCCC)C(=O)c1cc(F)ccc1-c1ccc(C#N)c(C(F)(F)F)c1` [EM-4844], for which the IC50 under setting [1] is above 500 nM. Moreover, under setting [2], the “A = Ki OH-Flu/Ki compound” value was below 0.2.
Take `CCCN(CCC)C(=O)c1cc(F)ccc1-c1ccc(C#N)c(C(F)(F)F)c1` [EM-4845]: under setting [1], the IC50 is above 500 nM. In addition, under setting [2], the “A = Ki OH-Flu/Ki compound” value is below 0.2.
As to `N#Cc1ccc(-c2ccc(F)cc2C(N)=O)cc1Cl` [EM-4849], under setting [1], the half-inhibitory concentration (IC50) was above 500 nM. Besides, the “A = Ki OH-Flu/Ki compound” value under setting [2] is listed as below 0.2.
In the case of `N#Cc1ccc(-c2c(F)cc(F)cc2F)cc1Cl` [EM-4851], the concentration for half-maximal inhibition (IC50) under setting [1] is above 500 nM. Also, the “A = Ki OH-Flu/Ki compound” value under setting [2] was below 0.2.
For `CCCNC(=O)c1cc(F)ccc1-c1ccc(C#N)c(C(F)(F)F)c1` [EM-4855], in that order: above 500 nM and below 0.2.
For `CCCCNC(=O)c1cc(F)ccc1-c1ccc(C#N)c(C(F)(F)F)c1` [EM-4856], in that order: above 500 nM and below 0.2.
`N#Cc1ccc(-c2ccc(F)cc2C(=O)Nc2ccccc2)cc1C(F)(F)F` [EM-4864]: the IC50 under setting [3] was above 500 nM. Further, the “A = Ki OH-Flu/Ki compound” value under setting [2] is below 0.2.
On to `CN(C)C(=O)c1cc(F)ccc1-c1ccc(C#N)c(C(F)(F)F)c1` [EM-4865], for which the IC50 under setting [1] is above 500 nM. The “A = Ki OH-Flu/Ki compound” value under setting [2] is below 0.2.
Regarding `CCNC(=O)c1cc(F)ccc1-c1ccc(C#N)c(C(F)(F)F)c1` [EM-4866], the IC50 under setting [1] is above 500 nM. For the same molecule, the “A = Ki OH-Flu/Ki compound” value under setting [2] is below 0.2.
For `N#Cc1ccc(-c2cc([N+](=O)[O-])c(F)cc2F)cc1C(F)(F)F` [EM-4867], in that order: above 500 nM and below 0.2.
Taken in the same sequence, the figures for `COc1ccc(-c2ccc(F)cc2F)cc1Br` [EM-4871] were above 500 nM and below 0.2.
For `COc1ccc(-c2ccc(C#N)c(C(F)(F)F)c2)c(C(N)=O)c1` [EM-4905], the half-inhibitory concentration (IC50) under setting [1] was above 500 nM. Moreover, the “A = Ki OH-Flu/Ki compound” value under setting [2] is below 0.2.
Taken in the same sequence, the figures for `CCOc1ccc(-c2ccc(C#N)c(C(F)(F)F)c2)c(C(N)=O)c1` [EM-4925] were above 500 nM and below 0.2.
Regarding `Cc1cc(F)cc([N+](=O)[O-])c1-c1ccc(C#N)c(C(F)(F)F)c1` [EM-4947], the concentration for half-maximal inhibition (IC50) under setting [1] was above 500 nM. Further, under setting [2], the “A = Ki OH-Flu/Ki compound” value is below 0.2.
For `N#Cc1ccc(-c2c(F)cc(F)cc2[N+](=O)[O-])cc1C(F)(F)F` [EM-4948], in that order: above 500 nM and below 0.2.
For `CNC(=O)c1cc(F)ccc1-c1ccc(C#N)c(C(F)(F)F)c1` [EM-4961], in that order: above 500 nM and below 0.2.
Take `N#Cc1ccc(-c2ccc(Br)cc2C(N)=O)cc1C(F)(F)F` [EM-4979]: the IC50 under setting [1] was above 500 nM. The “A = Ki OH-Flu/Ki compound” value under setting [2] is below 0.2.
Taken in the same sequence, the figures for `CN(C)CCN(C)C(=O)c1cc(F)ccc1-c1ccc(C#N)c(C(F)(F)F)c1` [EM-4980] were above 500 nM and below 0.2.
Consider `CC(=O)Nc1cc(-c2ccc(C#N)c(C(F)(F)F)c2)c(C(N)=O)cc1F` [EM-5002], for which the half-maximal inhibitory concentration (IC50) under setting [1] is above 500 nM. For the same molecule, the “A = Ki OH-Flu/Ki compound” value under setting [2] was below 0.2.
For `N#Cc1ccc(-c2cc(NC(=O)c3ccc(Cl)cc3)c(F)cc2C(N)=O)cc1C(F)(F)F` [EM-5003], in that order: above 500 nM and below 0.2.
`N#Cc1ccc(-c2c(F)cc(F)cc2C(F)(F)F)cc1C(F)(F)F` [EM-5004]: the IC50 under setting [1] was above 500 nM. For the same molecule, the “A = Ki OH-Flu/Ki compound” value under setting [2] is recorded as below 0.2.
Taken in the same sequence, the figures for `N#Cc1ccc(-c2ccc(F)cc2C(=O)N2CCCC2)cc1C(F)(F)F` [EM-5014] were above 500 nM and below 0.2.
For `N#Cc1ccc(-c2ccc(F)cc2C(=O)Nc2ccc(F)cc2)cc1C(F)(F)F` [EM-5018], in that order: above 500 nM and below 0.2.
Taken in the same sequence, the figures for `N#Cc1ccc(-c2ccc(F)cc2C(=O)Nc2ccncc2)cc1C(F)(F)F` [EM-5019] were above 500 nM and below 0.2.
In the case of `N#Cc1ccc(-c2ccc(F)cc2C(=O)N2CCCCC2)cc1C(F)(F)F` [EM-5020], the half-inhibitory concentration (IC50) under setting [3] is above 500 nM. Moreover, the “A = Ki OH-Flu/Ki compound” value under setting [2] was below 0.2.
In the case of `N#Cc1ccc(-c2ccc(F)cc2C(=O)N2CCOCC2)cc1C(F)(F)F` [EM-5021], the IC50 under setting [1] was above 500 nM. Under setting [2], the “A = Ki OH-Flu/Ki compound” value is below 0.2.
Taken in the same sequence, the figures for `N#Cc1ccc(-c2ccc(F)cc2C(=O)Nc2ccc(F)cc2F)cc1C(F)(F)F` [EM-5038] were above 500 nM and below 0.2.
For `CSc1ccc(NC(=O)c2cc(F)ccc2-c2ccc(C#N)c(C(F)(F)F)c2)cc1` [EM-5082], in that order: above 500 nM and below 0.2.
For `CN(C)c1ccc(NC(=O)c2cc(F)ccc2-c2ccc(C#N)c(C(F)(F)F)c2)cc1` [EM-5083], in that order: above 500 nM and below 0.2.
Turning to `N#Cc1ccc(-c2ccc(F)cc2C(=O)NCc2ccccc2)cc1C(F)(F)F` [EM-5085], under setting [1], the IC50 was above 500 nM. The “A = Ki OH-Flu/Ki compound” value under setting [2] is listed as below 0.2.
Take `N#Cc1ccc(-c2ccc(F)cc2C(=O)Nc2ccc(Cl)cc2)cc1C(F)(F)F` [EM-5086]: the IC50 (inhibition of DHT-stimulated Shionogi cell number, 10-12 days, read-out: Antiandrogenic activity IC50) is above 500 nM. Besides, the “A = Ki OH-Flu/Ki compound” value under setting [2] is given as below 0.2.
On to `COC=Nc1cc(F)cc(C(N)=O)c1-c1ccc(C#N)c(C(F)(F)F)c1` [EM-5093], for which the 50% inhibitory concentration (IC50) under setting [1] is above 500 nM. Further, under setting [2], the “A = Ki OH-Flu/Ki compound” value was below 0.2.
With `N#Cc1ccc(-c2c(NC(=O)c3ccc(Cl)cc3)cc(F)cc2C(N)=O)cc1C(F)(F)F` [EM-5094], under setting [1], the IC50 was above 500 nM. For the same molecule, the “A = Ki OH-Flu/Ki compound” value under setting [2] is reported as below 0.2.
Taken in the same sequence, the figures for `N#Cc1cc(F)c(-c2ccc(F)cc2F)cc1Cl` [EM-5111] were above 500 nM and below 0.2.
As for `Cc1cc(C#N)c(Cl)cc1-c1ccc(F)cc1F` [EM-5112], under setting [3], the IC50 is 97 nM. The “A = Ki OH-Flu/Ki compound” value under setting [2] amounted to 1.1.
